Data reported in ChEMBL document CHEMBL1129789, “Dopamine D3 and D4 receptor antagonists: synthesis and structure--activity relationships of (S)-(+)-N-(1-Benzyl-3-pyrrolidinyl)-5-chloro-4- [(cyclopropylcarbonyl) amino]-2-methoxybenzamide (YM-43611) and related compounds” (J Med Chem, 1996).

How the values were obtained:
D(3) dopamine receptor = D(3) dopamine receptor (Rattus norvegicus, UniProt P19020); experiment: biochemical
Description: Binding affinity to rat Dopamine receptor D3 expressed in CHO cells was determined using [125 I] iodosulpride as radioligand

Mus musculus [1] = experiment: Compound was tested for inhibition of Apomorphine induced climbing in Mice on subcutaneous administration; type: functional; settings: sc
D(4) dopamine receptor = biological target: T1, D(4) dopamine receptor (Homo sapiens, UniProt P21917); experiment: biochemical
T1 sequence (P21917 whole entry): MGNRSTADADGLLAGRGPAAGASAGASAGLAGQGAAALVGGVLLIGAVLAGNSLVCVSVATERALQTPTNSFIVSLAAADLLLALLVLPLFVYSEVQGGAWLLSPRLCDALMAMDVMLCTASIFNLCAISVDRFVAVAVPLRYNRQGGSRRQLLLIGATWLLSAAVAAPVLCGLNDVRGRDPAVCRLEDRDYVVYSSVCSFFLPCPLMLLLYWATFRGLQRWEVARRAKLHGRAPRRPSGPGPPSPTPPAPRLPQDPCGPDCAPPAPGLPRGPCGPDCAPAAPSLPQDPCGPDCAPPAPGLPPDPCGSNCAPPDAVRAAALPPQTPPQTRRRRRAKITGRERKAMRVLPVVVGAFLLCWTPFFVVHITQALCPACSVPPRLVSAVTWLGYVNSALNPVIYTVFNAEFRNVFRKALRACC

Mus musculus [2] = species: Mus musculus; experiment: Compound was tested for inhibition of Apomorphine induced climbing in Mice; type: functional
Mus musculus [3] = experiment: Inhibition of Apomorphine induced climbing in mice administered sc; type: functional
Adrenergic receptor beta = Adrenergic receptor beta (Rattus norvegicus, UniProt P18090+P10608+P26255); experiment: Compound was tested for the binding affinity against rat cortical Beta adrenergic receptor by Radio ligand [3H]dihydroalprenolol binding assay.; type: protein assay

Chain of D(3) dopamine receptor (P19020 whole entry): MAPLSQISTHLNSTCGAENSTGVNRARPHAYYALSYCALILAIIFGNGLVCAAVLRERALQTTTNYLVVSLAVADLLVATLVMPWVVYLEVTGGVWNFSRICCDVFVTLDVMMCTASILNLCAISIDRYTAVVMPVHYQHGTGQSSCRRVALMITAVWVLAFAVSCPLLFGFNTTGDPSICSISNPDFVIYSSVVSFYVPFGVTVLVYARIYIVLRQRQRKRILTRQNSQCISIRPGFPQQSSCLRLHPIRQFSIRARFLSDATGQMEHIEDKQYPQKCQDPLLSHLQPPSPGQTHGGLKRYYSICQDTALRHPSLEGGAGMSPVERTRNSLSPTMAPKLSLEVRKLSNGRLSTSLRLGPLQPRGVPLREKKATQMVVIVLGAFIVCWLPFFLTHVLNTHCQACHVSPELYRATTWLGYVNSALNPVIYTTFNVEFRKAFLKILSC

Structure (SMILES) | Ki (D(3) dopamine receptor) | ED50 (Mus musculus [1]) | Ki (D(4) dopamine receptor) | ED50 (Mus musculus [2]) | ED50 (Mus musculus [3]) | Ki (Adrenergic receptor beta)
CCC(=O)Nc1cc(OC)c(C(=O)N[C@H]2CCN(Cc3ccccc3)C2)cc1Cl | 5.9 nM | 0.31 mg/kg | 1.5 nM |  |  | 
COc1cc(NC(=O)C2CC2)c(Cl)cc1C(=O)N[C@H]1CCN(C2C3CCCC2CCC3)C1 (stereo partly drawn) | 2.2 nM | > 10 mg/kg | 3.8 nM |  |  | 
COc1cc(NC(=O)C2CC2)c(Cl)cc1C(=O)N[C@H]1CCN(C2CCCCC2)C1 | 4.4 nM | 1.4 mg/kg | 2.1 nM |  |  | 
COc1cc(NC(=O)C2CCC2)c(Cl)cc1C(=O)N[C@@H]1CCN(Cc2ccccc2)C1 | 100 nM |  | 7 nM |  |  | 
CNc1cc(OC)c(C(=O)N[C@H]2CCN(C3C4CCCC3CCC4)C2)cc1Cl (stereo partly drawn) | 0.24 nM |  | 0.67 nM |  |  | 
COc1cc(NC(=O)C2CCCCC2)c(Cl)cc1C(=O)N[C@H]1CCN(Cc2ccccc2)C1 | 200 nM |  | 110 nM |  |  | 
CNc1cc(OC)c(C(=O)N[C@H]2CCN(Cc3ccccc3)[C@H]2C)cc1Cl [NEMONAPRIDE] |  | 0.012 mg/kg |  |  |  | 
COc1cc(NC(=O)C(C)C)c(Cl)cc1C(=O)N[C@H]1CCN(Cc2ccccc2)C1 | 15 nM |  | 3 nM |  |  | 
COc1cc(NC(=O)C2CC2)c(Cl)cc1C(=O)N[C@H]1CCN(C2C3CC4CC(C3)CC2C4)C1 (stereo partly drawn) | 1.7 nM | > 10 mg/kg | 4.4 nM |  |  | 
COc1cc(NC(=O)C2CC2)c(Cl)cc1C(=O)N[C@H]1CCN(C2CCCCCC2)C1 | 1.5 nM |  | 2.7 nM |  |  | 
C=CC(=O)Nc1cc(OC)c(C(=O)N[C@H]2CCN(Cc3ccccc3)C2)cc1Cl | 4.7 nM |  | 1.3 nM |  |  | 
COc1cc(NC(=O)C(F)(F)F)c(Cl)cc1C(=O)N[C@H]1CCN(Cc2ccccc2)C1 | 5.1 nM |  | 1.9 nM |  |  | 
COc1cc(NC(=O)C2CC2)c(Cl)cc1C(=O)N[C@H]1CCN(CCc2ccccc2)C1 | 33 nM |  | 3.4 nM |  |  | 
CN1CCN(C2=Nc3cc(Cl)ccc3Nc3ccccc32)CC1 [CLOZAPINE] |  |  |  | 6.8 mg/kg |  | 
COc1cc(NC(=O)C2CCCC2)c(Cl)cc1C(=O)N[C@@H]1CCN(Cc2ccccc2)C1 | 150 nM |  | 18 nM |  |  | 
COc1cc(NC(=O)C2CCC2)c(Cl)cc1C(=O)N[C@H]1CCN(Cc2ccccc2)C1 | 36 nM | 0.14 mg/kg | 5.2 nM |  |  | 
COc1cc(NC(=O)C2CC2)c(Cl)cc1C(=O)N[C@@H]1CCN(Cc2ccccc2)C1 | 60 nM | 0.45 mg/kg | 5.6 nM |  |  | 
COc1cc(NC(=O)C2CC2)c(Cl)cc1C(=O)N[C@H]1CCN(CC2CCCCC2)C1 | 3.7 nM |  | 3.3 nM |  |  | 
COc1cc(NC(=O)c2ccccc2)c(Cl)cc1C(=O)N[C@H]1CCN(Cc2ccccc2)C1 | 200 nM |  | 87 nM |  |  | 
COc1cc(NC(=O)C2CC2)c(Cl)cc1C(=O)N[C@H]1CCNC1 | 3000 nM | > 30 mg/kg | 2200 nM |  |  | 
COc1cc(N)c(Cl)cc1C(=O)N[C@H]1CCN(Cc2ccccc2)C1 | 0.58 nM |  |  |  | 0.071 mg/kg | 
COc1cc(N)c(Cl)cc1C(=O)N[C@@H]1CCN(Cc2ccccc2)C1 | 1.9 nM |  |  |  |  | 
COc1cc(NC(=O)C2CCCC2)c(Cl)cc1C(=O)N[C@H]1CCN(Cc2ccccc2)C1 | 55 nM | 0.28 mg/kg | 20 nM |  |  | 
O=C(CCCN1CCC(O)(c2ccc(Cl)cc2)CC1)c1ccc(F)cc1 [HALOPERIDOL] |  |  |  | 0.041 mg/kg |  | > 10000 nM
